Measured values reported in US8664276B2, “Stilbene analogs and methods of treating cancer” (University of Kentucky Research Foundation, priority 2011, dated 2014).

How the values were obtained:
MAT2A [1] = target: T1, MAT2A (Homo sapiens, UniProt P31153); assay: In-vitro SAM synthesis by MAT2A (LC-MS/MS); assay type: biochemical; design: GST (N); made in house
Description: (§1) SAM and SAH analysis by LC-MS/MS. The LC-MS/MS system consisted of two Varian ProStar 210 LC Pumps coupled with a Varian 1200L triple quadrupole mass spectrometer. The separation was performed on a Hypercarb column (50 mm×2.1 mm, […], Thermo Scientific #35003-052130). Gradient elution started with 98% solution A (0.1% formic acid in water), followed by an increase to 38% solution B (0.1% formic acid in acetonitrile) in 8 min. The column was than flushed with 90% B for 5 min and regenerated with 98% A for another 8 min. The flow rate was 0.25 mL/min. Between the 3rd and 11th min, the eluent was switched to the ion source of the mass spectrometer. The precursor product transitions for SAM (m/z 399→250), SAH (m/z 385→250) and [d-4]-SAH (m/z 389→136) were monitored. The optimized ion source parameters were: Capillary Voltage: 32 V for both SAM and SAH, Collision energy: 9 V and 7V for SAM and SAH, respectively, Needle voltage: 5000 V and the Shield voltage: 600V. Nitrogen was used as the drying gas at a temperature of 300° C. and the interface heater was set to 50° C. The drying gas and nebulizing gas were set to 20 and 50 psi, respectively.
SAM synthesis. […] purified MAT2A was incubated with 1 mM L-methionine and 1 mM ATP in […] reaction solution (50 mM Tris.Cl, 50 mM KCl, 10 mM MgCl2) for 5 min at 25° C. […] SAM was analyzed by LC-MS/MS. […]

MAT2A [2] = target: T1, MAT2A; assay: Cell based SAM and SAH analysis in LS174 colon cancer cells (LC-MS/MS); design: endogenous in cells; host or cells: LS174T; conditions: 10 μM of 4r versus 30 μM of resveratrol
Description: as §1
Cell based SAM analysis. […] 5 ul of supernatants were analyzed by LC-MS/MS using a modified method based on a previous publication (see Krijt et al., J Chromatogr B Analyt Technol Biomed Life Sci 877, 2061-6, (2009)). […]

β-catenin = β-catenin localization by immunofluorescence in LS174 cells; assay type: cell-based; conditions: 10 μM, 24 h, versus DMSO
Description: Immunofluorescence. Cells grown on cover glass were fixed by 4% paraformaldehyde for 20 min at room temperature. The cells were permeabilized with PBS containing 0.3% (w/v) Triton X-100 and blocked by 5% normal goat serum in PBS for 30 min. Anti-β-catenin antibody (1:300, Sigma, St. Louis, Mo.) was diluted in blocking solution and incubated with cells overnight. The cells were washed 3 times with PBS and further incubated with Alexa-488-labeled anti-rabbit IgG (1:500) diluted in PBS for 40 min. The cover glasses were washed, mounted on glass slides, viewed and photographed with an Olympus FW1000 confocal microscope. Cells grown on cover glass were treated with fluorescent compounds for 2 h, 6 h, 12 h and 24 h respectively. Treated cells were fixed by 4% paraformaldehyde for 20 min at room temperature. Then cells were washed 3 times with PBS and mounted on glass slides, viewed under the fluorescence of 405 nm-wavelength and photographed with an Olympus FW1000 confocal microscope.
Nevertheless, compound 4s lends itself well to a mechanistic study of the site of action of these compounds. LS174 cells were treated with 10 μM of compound 4s for 2 h, 6 h, 12 h, and 24 h. The cells were fixed and analyzed by confocal fluorescence microscopy. […] The cells were fixed and β-catenin localization analyzed by immunofluorescence. […]

LS174 CRC cells = assay: CRC cell proliferation assay (Vi-Cell); assay type: cell-based
Description: Luciferase and cell proliferation assay. HEK293T cells were transiently transfected in a 12-well plate with 0.2 μg of the Super8xTOPFlash reporter and 0.05 μg of Renilla luciferase reporter. Culture medium was changed after 12 h. After 6 h, cells were treated with DMSO or Wnt inhibitors for 12 h, and then treated with 25 mM LiCl or Wnt conditioned medium. After 12 h, cells were harvested and luciferase activity measured by Dual-luciferase Reporter Assay System (Promega, Madison Wis.). All conditions were done in triplicate and each experiment was carried out at least two times. For cell proliferation assay, CRC cells were treated with DMSO or inhibitors for 2d and 4d. The cell numbers and viability were analyzed by Vi-Cell Cell Viability Analyzer.
Western blot and cell proliferation assay. The activity of fluorinated N,N-dialkylaminostilbenes (FIDAS or FIDAS agents) on Wnt signaling activity in cancer cells were analyzed by Western blot with antibodies against Wnt target genes, such as c-Myc, Axin2. The effects of FlDAS agents on cancer cell growth were analyzed using Cell Viability Analyzer (Beckman Coulter, Vi-Cell XR). These assays have been described previously (see Zhang et al., J. of Med. Chem. 54, 1288-1297 (2011)).

## CN(C)c1ccc(/C=C/c2c(F)cccc2F)cc1 [4r, (E)-4-(2,6-Difluorostyryl)-N,N-dimethylaniline]
MAT2A [1]
  MAT2A activity in SAM synthesis: inhibit MAT2A activity
MAT2A [2]
  MAT2A activity (SAM levels) in LS174 cells versus resveratrol: more significantly than 30 μM of resveratrol
β-catenin
  nuclear β-catenin levels: decreased
LS174 CRC cells; 0.1, 0.3 and 1 μM (FIG. 7A)
  LS174 cell proliferation at nanomolar concentrations: inhibited LS174 cell proliferation at nanomolar concentrations
LS174 CRC cells; cell proliferation assay
  CRC cell growth inhibition compared with other compounds: more potent than compound 4e
